Reference: patent publication US20150209366A1, “COMBINATION OF A MACROCYCLIC PROTEASE INHIBITOR OF HCV, A NON-NUCLEOSIDE HCV INHIBITOR AND RITONAVIR” (Janssen Pharmaceuticals, Inc., priority 2012, published 2015)

How the values were obtained:
[1] = Pharmacokinetics of compound (III), alone versus in combination with (I) and ritonavir; assay type: in vivo, human; conditions: geometric mean (CV%); for Cmax / AUC(0-t): human, in vivo; for AUC(0-t): read-out: AUC24 h
Procedure: (§1) The pharmacokinetic variables for the compound of formula (I) and (III) administered alone where compared when they were co-administered in a combination of (I), (II) and (III). All tables indicate Geometric mean (CV %) pharmacokinetic parameters and might be the result of multiple studies. The compounds are indicated by their respective numbers (I, II or III) in the tables below. A comparison is made between an administration of compound of Formula (III) 1000 mg alone, versus 300 mg compound of formula (III) in combination with 50 mg of compound of Formula (I) and 20 mg of Ritonavir (compound of Formula (II). The results are indicated in table 2 below.

[2] = Pharmacokinetics of compound (I), alone versus in combination with (III) and ritonavir, healthy subjects; assay type: in vivo, human; conditions: geometric mean; for Cmax / AUC(0-t): human, in vivo; for AUC(0-t): read-out: AUC24 h
Procedure: as §1, with “between” for “between an”, “(I) 150” for “(III) 1000”, “alone” for “alone,”, “(II) according to the following protocol. • 150 mg qd (I) given for 14 days to 10 healthy subjects • Washout of 14 days • 50 mg qd (I), 300 mg qd (III), 20 mg qd ritonavir (II) given for 14 days to the same 10 healthy volunteers.” for “(II). The results are indicated in table 2 below.”

[3] = 300 mg (III) + 50 mg (I) + 20 mg (II) qd
[4] = 50 mg (I) + 300 mg (III) + 20 mg RTV qd for 14 days, same 10 healthy volunteers
[5] = (I) alone, 150 mg qd for 14 days, 10 healthy subjects

Row | SMILES | Cmin [1, 3] | Cmin ([1]; (III) alone, 1000 mg bid) | Cmax [1, 3] [ng/mL] | AUC(0-t) [1, 3] [ng·h/mL] | Cmax ([1]; (III) alone, 1000 mg bid) [ng/mL] | AUC(0-t) ([1]; (III) alone, 1000 mg bid) [ng·h/mL] | Cmin [2, 4] [ng/mL] | Cmin [2, 5] [ng/mL] | Cmax [2, 4] [ng/mL] | AUC(0-t) [2, 4] [ng·h/mL] | Cmax [2, 5] [ng/mL] | AUC(0-t) [2, 5] [ng·h/mL]
1 | COc1ccc2c(c1)C=C1Cn3c-2c(C2CCCCC2)c2ccc(cc23)C(=O)NS(=O)(=O)N(C)CCOCCN(C)C1=O [III] | 0.21 (86%) μg/ml | 0.16 (42%) μg/ml | 6570 | 52200 | 5220 | 40100 |  |  |  |  |  | 
2 | COc1ccc2c(O[C@@H]3C[C@H]4C(=O)N[C@]5(C(=O)NS(=O)(=O)C6CC6)C[C@H]5/C=C\CCCCN(C)C(=O)[C@@H]4C3)cc(-c3nc(C(C)C)cs3)nc2c1C [I, (1R,4R,6S,15R,17R)-cis-N-[17-[2-(4-isopropylthiazole-2-yl)-7-methoxy-8-methylquinolin-4-yloxy]-13-methyl-2,14-dioxo-3,13-diazatricyclo[13.3.0.0^4,6]octadec-7-ene-4-carbonyl]-(cyclopropyl)sulfonamide] |  |  |  |  |  |  | 375 | 1405 | 1460 | 20000 | 4750 | 71200
